Measurements from patent US10047084B2, “Imidazolone derivatives, pharmaceutical compositions and uses thereof” (BEIJING FORELANDPHARMA CO. LTD., priority 2013, dated 2018).

Tests used:
Assay type in all cases: cell-based
[1] = system: MV-4-11; test: CTG cell survival assay, MV-4-11; conditions: Homo sapiens, MV4-11, MV-4-11 cells
Description: (§1) 2. CTG Cell Survival Assay:
(§2) ATP is necessarily produced during the metabolic activities of viable cells, and there is a linear relationship between the content of ATP and the number of viable cells. Cell viability assay by CTG chemiluminescence is a general method for detecting the number of viable cells in the culture cells based on this principle. The addition of the CellTiter-Glo (CTG) reagent may induce cell lysis and produce chemiluminescent signals directly proportional to the amount of ATP in the well-plate, and thereby the cell proliferation activity in the well-plate can be measured by the reading values from the chemiluminescence.
(§3) 2.1 Experimental Materials and Instruments:
2.1.1 Experimental Materials: compounds to be tested, cell basal culture medium, RPMI Medium 1640 (Invitrogen, Cat#11875-093), fetal calf serum (FBS): Hyclone FETAL BOVINE SERUM DEFINED (Invitrogen, Cat#SH30070.03), antibiotics: Penicilin Streptomycin (Invitrogen, Cat#15140-122), phosphate buffer (Corning Cellgro, Cat#R21-040-CV), cell digestive solution: 0.25% Trypsin-EDTA (Invitrogen, Cat#25200-056), CTG detection kit: Promega, Cat#G7571, flat-bottom 96-well black bottom plate: NUNC, Cat#165305, T25 culture flask: NUNC, Cat#156367, T75 culture flask: NUNC, Cat#156439
2.2 Experimental Instruments: Carbon Dioxide Incubator, SANYO-MCO-20AIC, Biosafe Cabinet: BSC-1360-LIIA2, Table-Top High-Speed Refrigerated Centrifuge: SorvallST 16R, Microplate Rapid Oscillator: QB-9001, M3 Reader: SpectraMax M3, Microscope: OLYMPUS-CKX41/CKX31.
2.3 Preparation of Solutions and Reagents: Formulation of cell growth medium: RPMI Medium 1640+10% FBS+antibiotics, others: trypsin digestive solution, phosphate buffer (PBS), DMSO, CTG detection kit.
2.4 Experimental Procedure: • 1.4.1 Cell Thawing: Cryogenic vials were removed from the liquid nitrogen container, directly immersed in a water bath at 37° C., and shaked from time to time to thaw. The cryogenic vials were removed from the water bath at 37° C., and transferred to the biosafe cabinet. Their lids were opened, and the cell suspensions were aspirated with pipettes, added to centrifuge tubes, and then added with more than 10 volumes of culture solution, mixed well; centrifuged for 5 min at 1000 rpm; the supernatant was discarded, and medium containing cell growth was added to resuspend cells. All cell suspensions were seeded to the T25 culture flasks and static cultured in an incubator at 37° C.; the culture solution were changed once on the next day, and continued to be cultured. • 2.4.2 Cell Passaging: After cells were grown to logarithmic phase and were 80%-90% confluent, cells were removed and placed in the biosafe cabinet, the old culture solution was discarded, and the cells were wetted and washed with PBS once or twice. An appropriate amount of 0.25% Trypsin-EDTA solution was added to the culture flasks. The flasks were placed in the carbon dioxide incubator at 37° C. for 2-5 min. An appropriate amount of cell growth medium containing 10% PBS was added to terminate the digestion, lightly swished, and transferred to the centrifuge tubes and centrifuged for 5 min at 1000 rpm. The cells were prepare (into cell suspensions for passaging and experimental use. • 2.4.3 Cell Plating • 2.4.3.1 A cell suspension was prepared: After cells were grown to logarithmic phase and were 80%-90% confluent, the cells were removed to the biosafe cabinet, and the old culture solution was discarded, then the cells were wetted and washed with PBS once or twice. An appropriate amount of 0.25% Trypsin-EDTA solution was added to the culture flask. The flask was placed in a carbon dioxide incubator at 37° C. for 2-5 min. An appropriate amount of the cell growth medium containing 10% PBS was added to terminate digestion, and was lightly swished. The solution was transferred to a centrifuge tube, centrifuged for 5 min at 1000 rpm, and counted. […]

[2] = system: PC-3; test: CTG cell survival assay, PC-3; conditions: Homo sapiens, PC-3 cells
Description: as §1, §2, §3
(§4) 2.4 Experimental Procedure: • 1.4.1 Cell Thawing: Cryogenic vials were removed from the liquid nitrogen container, directly immersed in a water bath at 37° C., and shaked from time to time to thaw. The cryogenic vials were removed from the water bath at 37° C., and transferred to the biosafe cabinet. Their lids were opened, and the cell suspensions were aspirated with pipettes, added to centrifuge tubes, and then added with more than 10 volumes of culture solution, mixed well; centrifuged for 5 min at 1000 rpm; the supernatant was discarded, and medium containing cell growth was added to resuspend cells. All cell suspensions were seeded to the T25 culture flasks and static cultured in an incubator at 37° C.; the culture solution were changed once on the next day, and continued to be cultured. • 2.4.2 Cell Passaging: After cells were grown to logarithmic phase and were 80%-90% confluent, cells were removed and placed in the biosafe cabinet, the old culture solution was discarded, and the cells were wetted and washed with PBS once or twice. An appropriate amount of 0.25% Trypsin-EDTA solution was added to the culture flasks. The flasks were placed in the carbon dioxide incubator at 37° C. for 2-5 min. An appropriate amount of cell growth medium containing 10% PBS was added to terminate the digestion, lightly swished, and transferred to the centrifuge tubes and centrifuged for 5 min at 1000 rpm. The cells were prepare (into cell suspensions for passaging and experimental use. • 2.4.3 Cell Plating • 2.4.3.1 A cell suspension was prepared: After cells were grown to logarithmic phase and were 80%-90% confluent, the cells were removed to the biosafe cabinet, and the old culture solution was discarded, then the cells were wetted and washed with PBS once or twice. An appropriate amount of 0.25% Trypsin-EDTA solution was added to the culture flask. The flask was placed in a carbon dioxide incubator at 37° C. for 2-5 min. An appropriate amount of the cell growth medium containing 10% PBS was added to terminate digestion, and was lightly swished. The solution was transferred to a centrifuge tube, centrifuged for 5 min at 1000 rpm, and counted. […] Secondly, 20 uM of the compound to be tested was diluted with the cell growth medium containing 0.2% DMSO in 3-fold dilution to obtain 9 concentrations, and there were 10 concentration gradients in total. • 2.4.4.3 Addition of the compounds to be tested: the prepared gradient dilution solutions of compounds to be tested were taken and added to the cell culture plate at 100 ul/well; at this point, the maximum concentration of compounds to be tested was 10 uM, and the concentration of DMSO was 0.1%.

[3] = system: SK-BR3/BT474; test: CTG cell survival assay, SK-BR3/BT474; conditions: SK-BR3/BT474 cells
Description: as §1, §2, §3, §4

**Q.** `Cn1cc(-c2ccc(-c3ccc4ncc5c(c4n3)n([C@@H]3CCCN(S(C)(=O)=O)C3)c(=O)n5C)cn2)cn1` [Example 49, (R)-3-methyl-8-(6-(1-methyl-1H-pyrazol-4-yl)pyridin-3-yl)-1-(1-(methanesulfonyl)piperidin-3-yl)-1H-imidazo[4,5-c][1,5]naphthyridin-2(3H)-one] was tested. Which EC50 [1] did it give?
**A.** < 20 nM

**Q.** What about the EC50 [2] of the same compound?
**A.** 10 nM

**Q.** What about the EC50 [3] of the same compound?
**A.** 20 nM

**Q.** What does the source list for `Cn1cc(-c2ccc(-c3ccc4ncc5c(c4n3)n([C@H]3CCN(S(C)(=O)=O)C3)c(=O)n5C)cn2)nn1` [Example 50, (S)-3-methyl-8-(6-(1-methyl-1H-1,2,3-triazol-4-yl)pyridin-3-yl)-1-(1-(methanesulfonyl)pyrrolidin-3-yl)-1H-imidazo[4,5-c][1,5]naphthyridin-2(3H)-one]?
**A.** EC50 [1]: < 30 nM; EC50 [2]: 20 nM; EC50 [3]: 30 nM

**Q.** With `Cn1c(=O)n([C@H]2CCN(S(C)(=O)=O)C2)c2c3cc(-c4ccc(-n5cccn5)nc4)ccc3ncc21` [Example 44, (S)-8-(6-(1H-pyrazol-1-yl)pyridin-3-yl)-3-methyl-1-(1-(methanesulfonyl)pyrrolidin-3-yl)-1H-imidazo[4,5-c]quinolin-2(3H)-one] as the compound, how does the EC50 [1] read?
**A.** 40 nM

**Q.** And the EC50 [2]?
**A.** < 50 nM

**Q.** What about the EC50 [3] of the same compound?
**A.** 90 nM

**Q.** For `Cn1cc(-c2ccc(-c3ccc4ncc5c(c4c3)n([C@@H]3CCCN(S(=O)(=O)C(F)(F)F)C3)c(=O)n5C)cn2)cn1` [Example 56, (R)-3-methyl-8-(6-(1-methyl-1H-pyrazol-4-yl)pyridin-3-yl)-1-(1-((trifluoromethyl)sulfonyl)piperidin-3-yl)-1H-imidazo[4,5-c]quinolin-2(3H)-one], which EC50 [1] is on record?
**A.** 60 nM

**Q.** What about the EC50 [2] of the same compound?
**A.** < 30 nM

**Q.** And the EC50 [3]?
**A.** 70 nM

**Q.** For `Cn1cc(-c2ccc(-c3ccc4ncc5c(c4c3)n([C@H]3CCN(S(C)(=O)=O)C3)c(=O)n5C)cn2)nn1` [Example 45, (S)-3-methyl-8-(6-(1-methyl-1H-1,2,3-triazol-4-yl)pyridin-3-yl)-1-(1-(methanesulfonyl)pyrrolidin-3-yl)-1H-imidazo quinolin-2(3H)-one], which EC50 [1] is on record?
**A.** < 20 nM

**Q.** What about the EC50 [2] of the same compound?
**A.** < 10 nM

**Q.** What about the EC50 [3] of the same compound?
**A.** < 20 nM

**Q.** With `Cn1cc(-c2ccc(-c3ccc4ncc5c(c4c3)n([C@H]3CC[C@@H](NS(C)(=O)=O)CC3)c(=O)n5C)cn2)cn1` [Example 34, N-((1s,4s)-4-(3-methyl-8-(6-(1-methyl-1H-pyrazol-4-yl)pyridin-3-yl)-2-oxo-2,3-dihydro-1H-imidazo[4,5-c]quinolin-1-yl)cyclohexyl)methanesulfonamide] as the compound, how does the EC50 [1] read?
**A.** < 200 nM

**Q.** What about the EC50 [2] of the same compound?
**A.** < 100 nM

**Q.** And the EC50 [3]?
**A.** < 50 nM

**Q.** Which results are given for `CCNC(=O)N1CCC[C@@H](n2c(=O)n(C)c3cnc4ccc(-c5ccc(-c6cnn(C)c6)nc5)cc4c32)C1` [Example 55, (R)—N-ethyl-3-(3-methyl-8-(6-(1-methyl-1H-pyrazol-4-yl)pyridin-3-yl)-2-oxo-2,3-dihydro-1H-imidazo[4,5-c]quinolin-1-yl)piperidine-1-formamide]?
**A.** EC50 [1]: 800 nM; EC50 [2]: 300 nM; EC50 [3]: 300 nM

**Q.** What does the source list for `Cn1cc(-c2ccc(-c3ccc4ncc5c(c4c3)n(C3CC4CCC(C3)N4S(C)(=O)=O)c(=O)n5C)cn2)nn1` (stereo not drawn) [Example 61, 3-methyl-8-(6-(1-methyl-1H-1,2,3-triazol-4-yl)pyridin-3-yl)-1-(8-(methanesulfonyl)-8-azabicyclo[3.2.1]octan-3-yl)-1H-imidazo[4,5-c]quinolin-2(3H)-one]?
**A.** EC50 [1]: < 20 nM; EC50 [2]: < 10 nM; EC50 [3]: < 10 nM

**Q.** Which EC50 [1] does the source give for `Cn1ccc(-c2ccc(-c3ccc4ncc5c(c4c3)n([C@H]3CCN(S(C)(=O)=O)C3)c(=O)n5C)cn2)n1` [Example 47, (S)-3-methyl-8-(6-(1-methyl-1H-pyrazol-3-yl)pyridin-3-yl)-1-(1-(methanesulfonyl)pyrrolidin-3-yl)-1H-imidazo[4,5-c]quinolin-2(3H)-one] here?
**A.** < 100 nM

**Q.** What about the EC50 [2] of the same compound?
**A.** 30 nM

**Q.** What about the EC50 [3] of the same compound?
**A.** 40 nM
